Compound: NC(=O)CCCCC1CCSS1 [lipoamide]
Test: thermal stability z-score vs DMSO; higher = more thermally stabilized by treatment
Settings: HeLa; lipoamide concentration 100 µM; arsenate co-treatment: none
Experimental: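 Cellular thermal proteome profiling in HeLa cells. Cells were treated with 100 µM lipoamide for 1 h, with or without 1 mM arsenate for a further 1 h, then heated to ten temperatures (37-66.3 °C), and soluble protein was quantified by TMT mass spectrometry relative to 0.1% DMSO controls. The thermal stability score (sum of log2 fold changes minus the abundance score) was transformed to a z-score; mean of n = 3 experiments.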
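Further: each temperature applied for 3 min, abundance score taken as mean log2 fold change at the two lowest temperatures, z-score obtained by mean subtraction and division by SD.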

Sequence of UniProt Q9BUT1 (Q9BUT1 whole entry): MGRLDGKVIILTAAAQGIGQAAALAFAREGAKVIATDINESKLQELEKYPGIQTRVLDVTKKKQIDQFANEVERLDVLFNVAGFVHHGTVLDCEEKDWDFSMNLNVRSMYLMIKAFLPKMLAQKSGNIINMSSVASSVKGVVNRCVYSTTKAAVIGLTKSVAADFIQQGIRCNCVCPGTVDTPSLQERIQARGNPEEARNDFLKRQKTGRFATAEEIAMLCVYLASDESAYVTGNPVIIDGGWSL
Sequence of UniProt P08473 (P08473 whole entry): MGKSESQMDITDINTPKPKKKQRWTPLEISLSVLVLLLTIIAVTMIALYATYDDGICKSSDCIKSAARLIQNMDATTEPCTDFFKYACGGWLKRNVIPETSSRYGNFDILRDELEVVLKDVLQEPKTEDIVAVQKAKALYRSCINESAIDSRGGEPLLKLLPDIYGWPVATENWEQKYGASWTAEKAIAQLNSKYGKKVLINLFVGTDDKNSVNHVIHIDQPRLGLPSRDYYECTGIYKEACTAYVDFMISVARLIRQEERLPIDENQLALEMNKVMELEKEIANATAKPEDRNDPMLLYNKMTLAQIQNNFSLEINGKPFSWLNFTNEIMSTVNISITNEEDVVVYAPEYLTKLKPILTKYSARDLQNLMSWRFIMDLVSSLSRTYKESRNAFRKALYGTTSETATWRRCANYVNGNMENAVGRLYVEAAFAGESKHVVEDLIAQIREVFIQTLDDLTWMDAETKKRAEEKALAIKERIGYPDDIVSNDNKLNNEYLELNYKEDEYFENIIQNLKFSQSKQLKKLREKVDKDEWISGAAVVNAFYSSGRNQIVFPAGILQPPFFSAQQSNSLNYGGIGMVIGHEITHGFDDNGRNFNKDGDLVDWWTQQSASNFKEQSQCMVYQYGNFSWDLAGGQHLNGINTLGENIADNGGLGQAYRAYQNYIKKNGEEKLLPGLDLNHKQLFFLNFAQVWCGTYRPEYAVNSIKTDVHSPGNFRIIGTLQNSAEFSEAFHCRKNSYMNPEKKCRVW
Sequence of UniProt P63241 (P63241 whole entry): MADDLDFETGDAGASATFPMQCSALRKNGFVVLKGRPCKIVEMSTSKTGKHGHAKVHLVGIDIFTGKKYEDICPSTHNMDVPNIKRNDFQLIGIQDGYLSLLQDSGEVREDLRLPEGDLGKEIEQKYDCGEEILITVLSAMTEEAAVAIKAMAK
Sequence of UniProt P51617 (P51617 whole entry, looked up): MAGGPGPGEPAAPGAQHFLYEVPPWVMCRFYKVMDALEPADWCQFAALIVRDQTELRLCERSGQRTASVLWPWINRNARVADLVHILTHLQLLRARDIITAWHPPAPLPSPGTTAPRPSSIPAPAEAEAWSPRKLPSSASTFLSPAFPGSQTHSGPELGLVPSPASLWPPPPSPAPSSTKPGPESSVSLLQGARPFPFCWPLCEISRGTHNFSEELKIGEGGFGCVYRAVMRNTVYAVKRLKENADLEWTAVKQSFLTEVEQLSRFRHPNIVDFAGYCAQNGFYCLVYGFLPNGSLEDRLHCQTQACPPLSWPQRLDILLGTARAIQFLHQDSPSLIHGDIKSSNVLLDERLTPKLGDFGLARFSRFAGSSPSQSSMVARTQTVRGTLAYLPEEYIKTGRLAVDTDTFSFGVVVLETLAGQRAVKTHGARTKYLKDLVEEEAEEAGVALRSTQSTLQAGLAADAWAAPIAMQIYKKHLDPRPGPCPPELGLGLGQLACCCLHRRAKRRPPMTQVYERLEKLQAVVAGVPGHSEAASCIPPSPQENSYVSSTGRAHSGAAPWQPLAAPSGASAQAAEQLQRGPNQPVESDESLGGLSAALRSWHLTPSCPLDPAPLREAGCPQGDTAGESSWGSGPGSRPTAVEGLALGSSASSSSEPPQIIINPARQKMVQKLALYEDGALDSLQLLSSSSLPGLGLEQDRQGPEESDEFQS
Sequence of UniProt Q8NG68 (Q8NG68 whole entry): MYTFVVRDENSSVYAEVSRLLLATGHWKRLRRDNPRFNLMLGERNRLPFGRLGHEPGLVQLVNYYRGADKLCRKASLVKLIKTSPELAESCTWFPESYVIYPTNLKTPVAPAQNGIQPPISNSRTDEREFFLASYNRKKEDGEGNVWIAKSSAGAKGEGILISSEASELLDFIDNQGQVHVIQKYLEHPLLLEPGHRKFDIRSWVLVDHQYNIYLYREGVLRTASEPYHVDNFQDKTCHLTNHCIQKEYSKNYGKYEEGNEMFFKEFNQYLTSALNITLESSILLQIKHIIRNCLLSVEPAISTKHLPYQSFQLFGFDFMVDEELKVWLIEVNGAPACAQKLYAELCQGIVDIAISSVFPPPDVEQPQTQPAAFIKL
Sequence of UniProt O94829 (O94829 whole entry): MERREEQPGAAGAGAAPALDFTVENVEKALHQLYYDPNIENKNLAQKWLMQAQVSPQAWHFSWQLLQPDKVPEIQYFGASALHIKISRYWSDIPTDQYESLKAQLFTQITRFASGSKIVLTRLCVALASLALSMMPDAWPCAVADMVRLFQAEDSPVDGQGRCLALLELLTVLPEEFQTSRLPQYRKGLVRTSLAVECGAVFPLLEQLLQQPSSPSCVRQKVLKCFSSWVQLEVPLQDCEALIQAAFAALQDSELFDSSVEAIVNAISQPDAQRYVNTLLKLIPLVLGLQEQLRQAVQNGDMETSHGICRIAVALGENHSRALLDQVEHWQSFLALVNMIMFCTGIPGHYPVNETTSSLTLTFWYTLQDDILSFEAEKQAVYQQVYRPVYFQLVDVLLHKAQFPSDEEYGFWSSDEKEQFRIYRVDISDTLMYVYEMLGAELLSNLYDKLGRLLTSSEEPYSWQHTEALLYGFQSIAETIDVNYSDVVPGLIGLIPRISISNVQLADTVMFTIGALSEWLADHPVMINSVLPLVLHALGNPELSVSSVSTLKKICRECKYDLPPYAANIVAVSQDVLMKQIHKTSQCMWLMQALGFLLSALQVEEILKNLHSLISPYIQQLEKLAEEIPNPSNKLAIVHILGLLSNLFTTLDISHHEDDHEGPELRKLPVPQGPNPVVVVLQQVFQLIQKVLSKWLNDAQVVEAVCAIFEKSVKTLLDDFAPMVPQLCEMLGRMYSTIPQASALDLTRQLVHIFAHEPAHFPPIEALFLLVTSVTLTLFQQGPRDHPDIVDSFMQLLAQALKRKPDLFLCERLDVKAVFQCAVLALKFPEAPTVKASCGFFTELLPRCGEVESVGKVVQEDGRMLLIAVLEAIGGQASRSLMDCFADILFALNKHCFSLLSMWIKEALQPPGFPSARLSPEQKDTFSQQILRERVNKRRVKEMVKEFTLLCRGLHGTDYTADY
Sequence of UniProt Q9Y2R0 (Q9Y2R0 whole entry): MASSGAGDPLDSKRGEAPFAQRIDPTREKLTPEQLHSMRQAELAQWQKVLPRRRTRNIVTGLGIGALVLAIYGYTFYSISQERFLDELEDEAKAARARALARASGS

First: NUDT15 (UniProt Q9NV35)
Sequence of UniProt Q9NV35 (Q9NV35 whole entry): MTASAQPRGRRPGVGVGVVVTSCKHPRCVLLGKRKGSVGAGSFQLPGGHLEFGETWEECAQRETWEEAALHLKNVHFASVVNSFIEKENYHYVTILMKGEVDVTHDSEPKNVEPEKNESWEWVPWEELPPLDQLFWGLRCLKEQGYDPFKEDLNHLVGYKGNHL
Second: MECP2 (UniProt P51608)
Sequence of UniProt P51608 (P51608 whole entry): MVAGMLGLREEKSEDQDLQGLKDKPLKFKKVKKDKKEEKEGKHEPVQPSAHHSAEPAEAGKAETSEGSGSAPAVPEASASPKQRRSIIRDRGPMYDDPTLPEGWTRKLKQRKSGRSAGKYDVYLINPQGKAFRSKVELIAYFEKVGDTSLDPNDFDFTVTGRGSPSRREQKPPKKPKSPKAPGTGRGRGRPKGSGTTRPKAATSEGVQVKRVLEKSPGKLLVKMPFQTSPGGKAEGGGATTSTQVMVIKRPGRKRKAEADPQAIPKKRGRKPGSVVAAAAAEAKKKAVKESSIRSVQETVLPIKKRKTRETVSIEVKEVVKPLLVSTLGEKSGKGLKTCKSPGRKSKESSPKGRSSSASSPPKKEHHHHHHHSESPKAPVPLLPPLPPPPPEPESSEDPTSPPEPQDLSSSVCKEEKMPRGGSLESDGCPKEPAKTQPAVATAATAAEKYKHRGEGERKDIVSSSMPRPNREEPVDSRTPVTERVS
The thermal stability z-score of the first is higher: 0.121 for the first, -0.207 for the second.

Going from TCEAL4 (UniProt Q96EI5) to ABHD17B (UniProt Q5VST6), the thermal stability z-score falls from 0.201 to 0.135.

Compared with ATP11B (UniProt Q9Y2G3), TTL (UniProt Q8NG68) is higher in thermal stability z-score: -0.588 for the first, 0.166 for the second.

Going from P4HTM (UniProt Q9NXG6) to SSR1 (UniProt P43307), the thermal stability z-score falls from -0.262 to -0.782.

Compared with ADNP (UniProt Q9H2P0), RTN4 (UniProt Q9NQC3) is higher in thermal stability z-score: -0.0224 for the first, 0.711 for the second.

First: MTIF3 (UniProt Q9H2K0)
Second: DCTN2 (UniProt Q13561)
The thermal stability z-score of the first is lower: 0.197 for the first, 0.719 for the second.

Compared with ADAR (UniProt P55265), PLAUR (UniProt Q03405) is lower in thermal stability z-score: 0.448 for the first, -2.11 for the second.

Going from IRAK1 (UniProt P51617) to P4HB (UniProt P07237), the thermal stability z-score rises from -0.074 to 0.393.

Compared with BSG (UniProt P35613), TMOD1 (UniProt P28289) is lower in thermal stability z-score: 0.573 for the first, 0.298 for the second.

Going from NHSL1 (UniProt Q5SYE7) to DCAF10 (UniProt Q5QP82), the thermal stability z-score rises from 0.218 to 0.566.

Compared with EIF5A (UniProt P63241), COA3 (UniProt Q9Y2R0) is higher in thermal stability z-score: 0.0123 for the first, 0.725 for the second.

Going from MME (UniProt P08473) to NUP85 (UniProt Q9BW27), the thermal stability z-score rises from -1.37 to 0.113.

Compared with PPIL4 (UniProt Q8WUA2), BDH2 (UniProt Q9BUT1) is lower in thermal stability z-score: -0.236 for the first, -0.246 for the second.

Going from NEU1 (UniProt Q99519) to SUCLA2 (UniProt Q9P2R7), the thermal stability z-score rises from -0.25 to 0.0719.

First: MTMR9 (UniProt Q96QG7)
Second: ZGPAT (UniProt Q8N5A5)
The thermal stability z-score of the first is higher: 1.35 for the first, -0.13 for the second.

First: TAPT1 (UniProt Q6NXT6)
Second: CEBPB (UniProt P17676)
The thermal stability z-score of the first is higher: 0.562 for the first, -1.23 for the second.

Compared with CMC1 (UniProt Q7Z7K0), MTA3 (UniProt Q9BTC8) is higher in thermal stability z-score: -0.328 for the first, 0.129 for the second.

Going from ATP5E (UniProt P56381) to IPO13 (UniProt O94829), the thermal stability z-score falls from 0.508 to -0.218.

Compound: O=[As]([O-])(O)O.[K+] [potassium arsenate]
Test: as above
Settings: HeLa; arsenate concentration 1 mM
Experimental: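 Cellular thermal proteome profiling in HeLa cells treated with 1 mM arsenate for 1 h (DMSO pretreatment), heated to ten temperatures (37-66.3 °C). Soluble protein was quantified by TMT mass spectrometry relative to DMSO controls; the thermal stability score was transformed to a z-score; mean of n = 3 experiments.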

Going from R3HDM1 (UniProt Q15032) to CANX (UniProt P27824), the thermal stability z-score rises from 0.0316 to 0.851.

Compared with PTPN2 (UniProt P17706), GRAMD3 (UniProt Q96HH9) is lower in thermal stability z-score: 0.95 for the first, -0.0476 for the second.

Going from GLG1 (UniProt Q92896) to LAMTOR3 (UniProt Q9UHA4), the thermal stability z-score falls from -0.0446 to -0.713.

First: CEP250 (UniProt Q9BV73)
Second: WDR74 (UniProt Q6RFH5)
The thermal stability z-score of the first is higher: 0.0828 for the first, -0.205 for the second.

First: LIN54 (UniProt Q6MZP7)
Second: PAK1IP1 (UniProt Q9NWT1)
The thermal stability z-score of the first is higher: 0.0147 for the first, -1.53 for the second.

First: GNL1 (UniProt P36915)
Second: DMXL2 (UniProt Q8TDJ6)
The thermal stability z-score of the first is higher: 0.175 for the first, 0.00642 for the second.

Going from HNRNPM (UniProt P52272) to SNX2 (UniProt O60749), the thermal stability z-score rises from -1.87 to 0.364.

Compared with PYCR1 (UniProt P32322), CADM1 (UniProt Q9BY67) is higher in thermal stability z-score: -0.368 for the first, 0.376 for the second.

Going from POM121C (UniProt A8CG34) to MTMR3 (UniProt Q13615), the thermal stability z-score falls from 1.38 to -1.04.

Compared with ACSL3 (UniProt O95573), EED (UniProt O75530) is higher in thermal stability z-score: -0.39 for the first, -0.276 for the second.

Compared with ZDHHC6 (UniProt Q9H6R6), AKT2 (UniProt P31751) is higher in thermal stability z-score: -0.412 for the first, -0.0952 for the second.

Compared with SAE1 (UniProt Q9UBE0), CRK (UniProt P46108) is higher in thermal stability z-score: -0.458 for the first, 1.2 for the second.

Compared with ROCK2 (UniProt O75116), NIP7 (UniProt Q9Y221) is lower in thermal stability z-score: 0.245 for the first, -0.111 for the second.

Compared with KLHL42 (UniProt Q9P2K6), HSD17B11 (UniProt Q8NBQ5) is higher in thermal stability z-score: -0.142 for the first, 0.265 for the second.

First: ACLY (UniProt P53396)
Second: SAP18 (UniProt O00422)
The thermal stability z-score of the first is lower: -0.944 for the first, 0.519 for the second.

Going from FBXO28 (UniProt Q9NVF7) to TLK1 (UniProt Q9UKI8), the thermal stability z-score rises from -0.115 to 0.956.

First: EXOSC6 (UniProt Q5RKV6)
Second: DOPEY2 (UniProt Q9Y3R5)
The thermal stability z-score of the first is lower: -1.85 for the first, -0.9 for the second.

Going from HSPA13 (UniProt P48723) to NUDT15 (UniProt Q9NV35), the thermal stability z-score falls from -0.112 to -0.373.

Compared with MECP2 (UniProt P51608), TCEAL4 (UniProt Q96EI5) is lower in thermal stability z-score: -0.147 for the first, -0.306 for the second.

Going from ABHD17B (UniProt Q5VST6) to ATP11B (UniProt Q9Y2G3), the thermal stability z-score falls from -0.595 to -1.03.

Compared with TTL (UniProt Q8NG68), P4HTM (UniProt Q9NXG6) is higher in thermal stability z-score: -0.126 for the first, -0.0889 for the second.

First: SSR1 (UniProt P43307)
Sequence of UniProt P43307 (P43307 whole entry): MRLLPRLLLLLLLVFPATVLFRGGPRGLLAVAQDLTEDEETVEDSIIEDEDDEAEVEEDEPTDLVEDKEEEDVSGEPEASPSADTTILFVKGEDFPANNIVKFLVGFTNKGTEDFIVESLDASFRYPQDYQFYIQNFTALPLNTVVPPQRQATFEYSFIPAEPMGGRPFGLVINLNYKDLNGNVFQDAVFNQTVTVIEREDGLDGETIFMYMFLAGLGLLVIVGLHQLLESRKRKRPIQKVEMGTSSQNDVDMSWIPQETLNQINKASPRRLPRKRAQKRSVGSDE
Second: ADNP (UniProt Q9H2P0)
The thermal stability z-score of the first is lower: -1.26 for the first, -0.271 for the second.

Going from RTN4 (UniProt Q9NQC3) to MTIF3 (UniProt Q9H2K0), the thermal stability z-score rises from 0.413 to 0.55.

First: DCTN2 (UniProt Q13561)
Second: ADAR (UniProt P55265)
The thermal stability z-score of the first is higher: 0.914 for the first, -1.48 for the second.

Compared with PLAUR (UniProt Q03405), IRAK1 (UniProt P51617) is higher in thermal stability z-score: -0.768 for the first, -0.328 for the second.

Going from P4HB (UniProt P07237) to BSG (UniProt P35613), the thermal stability z-score falls from 0.47 to 0.265.

First: TMOD1 (UniProt P28289)
Second: NHSL1 (UniProt Q5SYE7)
The thermal stability z-score of the first is higher: 0.225 for the first, 0.0815 for the second.

Going from DCAF10 (UniProt Q5QP82) to EIF5A (UniProt P63241), the thermal stability z-score falls from 0.0678 to -0.005.

Going from COA3 (UniProt Q9Y2R0) to MME (UniProt P08473), the thermal stability z-score rises from 0.126 to 0.585.

First: NUP85 (UniProt Q9BW27)
Second: PPIL4 (UniProt Q8WUA2)
Sequence of UniProt Q8WUA2 (Q8WUA2 whole entry): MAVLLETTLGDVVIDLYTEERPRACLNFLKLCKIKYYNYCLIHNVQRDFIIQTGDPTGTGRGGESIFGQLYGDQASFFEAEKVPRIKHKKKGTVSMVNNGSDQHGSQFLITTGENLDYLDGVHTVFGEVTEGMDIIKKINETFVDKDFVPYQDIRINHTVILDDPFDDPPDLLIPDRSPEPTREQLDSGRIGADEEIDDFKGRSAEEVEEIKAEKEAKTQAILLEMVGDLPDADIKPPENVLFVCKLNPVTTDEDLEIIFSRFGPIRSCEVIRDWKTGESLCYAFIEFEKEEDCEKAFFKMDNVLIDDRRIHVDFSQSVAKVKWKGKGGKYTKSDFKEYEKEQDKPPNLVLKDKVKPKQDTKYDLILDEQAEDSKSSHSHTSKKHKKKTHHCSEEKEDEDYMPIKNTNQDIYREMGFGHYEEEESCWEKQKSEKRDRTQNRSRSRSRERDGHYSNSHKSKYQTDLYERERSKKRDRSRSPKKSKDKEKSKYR
The thermal stability z-score of the first is higher: 0.613 for the first, -0.913 for the second.

Compared with BDH2 (UniProt Q9BUT1), NEU1 (UniProt Q99519) is higher in thermal stability z-score: -0.414 for the first, 0.921 for the second.

Going from SUCLA2 (UniProt Q9P2R7) to MTMR9 (UniProt Q96QG7), the thermal stability z-score rises from -0.411 to -0.12.

First: ZGPAT (UniProt Q8N5A5)
Second: TAPT1 (UniProt Q6NXT6)
The thermal stability z-score of the first is higher: -0.307 for the first, -0.606 for the second.

First: CEBPB (UniProt P17676)
Second: CMC1 (UniProt Q7Z7K0)
Sequence of UniProt Q7Z7K0 (Q7Z7K0 whole entry): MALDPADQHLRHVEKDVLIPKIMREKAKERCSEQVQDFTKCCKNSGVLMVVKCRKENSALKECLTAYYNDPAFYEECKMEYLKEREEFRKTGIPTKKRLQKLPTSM
The thermal stability z-score of the first is lower: -0.856 for the first, 0.65 for the second.

First: MTA3 (UniProt Q9BTC8)
Second: ATP5E (UniProt P56381)
Sequence of UniProt P56381 (P56381 whole entry): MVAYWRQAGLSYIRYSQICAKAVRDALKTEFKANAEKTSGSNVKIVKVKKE
The thermal stability z-score of the first is lower: -0.13 for the first, 0.00933 for the second.

IPO13 (UniProt O94829) gave a thermal stability z-score of -0.159.
